# Experiments:
# [1] = molecular target: T1, V5-tagged GAC from Dbl-transformed NIH 3T3 cells (Mus musculus, UniProt D3Z7P3); test: GA activity of immunoprecipitated V5-GAC; assay type: cell-based; conditions: absence of phosphate
# T1 construct: expressed in transfected cells; host or cells: NIH 3T3 cells stably expressing oncogenic Dbl
# T1 sequence (D3Z7P3 55-603 isoform D3Z7P3-2 limits assumed): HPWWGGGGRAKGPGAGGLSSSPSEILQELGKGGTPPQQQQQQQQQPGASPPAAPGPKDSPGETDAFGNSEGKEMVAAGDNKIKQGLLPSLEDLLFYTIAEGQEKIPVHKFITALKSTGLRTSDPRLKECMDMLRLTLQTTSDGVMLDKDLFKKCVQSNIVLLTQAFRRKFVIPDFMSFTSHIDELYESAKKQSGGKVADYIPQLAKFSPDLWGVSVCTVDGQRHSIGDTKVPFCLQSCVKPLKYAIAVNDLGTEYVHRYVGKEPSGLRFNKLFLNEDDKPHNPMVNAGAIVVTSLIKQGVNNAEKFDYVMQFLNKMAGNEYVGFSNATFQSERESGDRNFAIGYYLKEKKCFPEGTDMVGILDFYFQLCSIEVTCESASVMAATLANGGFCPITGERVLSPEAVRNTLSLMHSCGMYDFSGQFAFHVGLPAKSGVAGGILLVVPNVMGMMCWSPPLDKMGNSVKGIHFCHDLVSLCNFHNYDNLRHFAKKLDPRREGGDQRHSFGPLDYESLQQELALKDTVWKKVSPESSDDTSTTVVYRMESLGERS
# Source text: FIGS. 4A-E illustrate the role of glutaminase C activity in cellular transformation. […] Data represent the average of 3 experiments (±s.d.). […] Data represent the average of 3 experiments (±s.d.). […] 100% represents the activity measured in untreated Dbl-transformed cells. The data represent the average of 2 experiments. […] 100% represents the activity measured in untreated SKBR3 cells. The data represent the average of 2 experiments. […] Data represent the average of 3 experiments (±s.d.).
# NIH 3T3 cells or NIH 3T3 cells stably expressing the Dbl oncogene, were transiently transfected with DNA encoding a V5-tagged GAC. The cells were then harvested and the ectopically expressed GAC was isolated by immunoprecipitation via the V5 tag. The VS-GAC obtained from one of the Dbl samples was additionally treated with alkaline phosphtase under dephosphorylation conditions. The samples were then assayed for glutaminase activity in the absence of phosphate (top panel) and the relative expression levels of VS-GAC was determined by Western blotting using an anit-V5 antibody (bottom panel).
# NIH 3T3 cells stably expressing oncogenic Dbl were transiently transfected with DNA encoding VS-tagged GAC, and cells were treated with either 968 or BA-968 ([…]) as indicated for 48 hours. The cells were then harvested and the ectopically expressed GAC was isolated by immunoprecipitation via the V5 tag. The samples were then assayed for glutaminase activity in the absence of phosphate (top panel) and the relative expression levels of VS-GAC was determined by Western blotting using an anti-V5 antibody (bottom panel).
# MDA-MB231 cells = test: Breast cancer cell soft agar colony formation and growth; assay type: cell-based, human; conditions: 10 μM
# Protocol: FIGS. 2A-G illustrate effects of 968 on the transforming activity of constitutively active Rho GTPases and human breast cancer cells. […] Cells are scored after 14 days and plotted as the percentage of the total number of colonies greater than […] in diameter. Data represent the average of 3 experiments (±s.d.). […] Data represent the average of 3 experiments (±s.d.). […] Data represent the average of 3 experiments (±s.d.). […] After 24 hours at 37° C. the migratory cells are fixed, stained with GIEMSA, and counted. Data represent the average of 3 experiments (±s.d.). […] Data represent the average of 3 experiments (±s.d.). […] Data represent the average of 3 experiments (±s.d.). […] Data represent the average of 3 experiments (±s.d.).
# [2] = molecular target: T2, V5-tagged GAC in NIH 3T3 cells stably expressing Dbl (Mus musculus, UniProt D3Z7P3); test: GAC phosphorylation by 2-D gel and Western blotting; assay type: cell-based; conditions: 10 μM for 48 hours
# T2 construct: expressed in transfected cells; host or cells: NIH 3T3 cells stably expressing oncogenic Dbl
# T2 sequence (D3Z7P3 55-603 isoform D3Z7P3-2 limits assumed): T1 sequence (D3Z7P3 55-603 isoform D3Z7P3-2 limits assumed)
# Protocol: NIH 3T3 cells stably expressing the Dbl oncogene, were transiently transfected with DNA encoding a VS-tagged GAC, and then one sample was treated with 968 (10 μM) for 48 hours. The cells were then harvested and the ectopically expressed GAC was isolated by immunoprecipitation via the V5 tag. The samples were then subjected to 2-D gel analysis to separate the V5-GAC by charge and size, and the V5-tagged GAC was visualized by Western blotting using an anti-V5 antibody. […] Since 968 inhibits the enzymatic activity of GAC, and the phosphorylation appears to be required for its basal enzyme activity, it appears that 968 might be functioning to inhibit glutaminase C by inhibiting the ability of at least one site on glutaminase C to become phosphorylated.
smiles,measurement,setting,value
"CN(C)c1ccc(C2Nc3ccc4ccccc4c3C3=C2C(=O)CC(C)(C)C3)cc1Br (centres unmarked) [Compound 968, 5-[3-bromo-4-(dimethylamino)phenyl]-2,2-dimethyl-2,3,5,6-tetrahydrobenzo[a]]",GA activity IPed from Dbl-transformed cells,[1]; 10 μM,inhibited
same,GAC activity after treatment of cells (FIG. 19),[1]; cells treated 10 mM for 48 hours,effective inhibitors
same,colony formation in soft agar,MDA-MB231 cells,inhibits
same,growth to high density and in low serum,MDA-MB231 cells,inhibits
same,phosphorylation state of GAC,[2],significant reduction of at least one phosphorylation state

# Reference: patent US10987317B2, “Inhibition of glutaminase C” (Cornell University, priority 2009, dated 2021)
